Test system: GluI and GluII in Raji (B lymphocyte) cells
Assay: Free oligosaccharide (FOS) assay in Raji cells
Type: cell-based, human
Conditions: 48 h, 50 µm
Method: 5 Cell and Virus Culture and Assays
5.1 Culture of Cell Lines
The human hepatoma cell line Huh7.5 (Apath, LLC) was cultured in Dulbecco’s modiﬁed Eagle medium (DMEM) with Glutamax (Gibco) supplemented with 100 µg mL−1 strepto-mycin (Sigma), 100 U mL−1 penicillin (Sigma), 100 µm MEM non-essential amino acids (Gibco) and 10% (volume/volume, v/v) heat-inactivated (56 ◦C, 30 min) fetal calf serum (FCS, Seralab). The human monocytic cell line HL60 (ATCC), human T lymphocyte cell line Jurkat (ATCC), and human B lymphocyte cell line Raji (ATCC) were each maintained in RPMI 1640 media with Glutamax (Gibco) supplemented with 100 µg mL−1 streptomycin, 100 U mL−1 penicillin and 10% (v/v) FCS. […]
Cell viability was measured using the CellTiter 96 R© AQueous One Solution Cell Prolifera-tion MTA (3-(4,5-dimethylthiazol-2-yl)-5-(3-carboxymethoxyphenyl)-2-(4-sulfophenyl)-2H - […]
After a further one to two hour incubation, the absorbance at 490 nm was measured on a Molecular Devices SpectraMax M5 microplate reader. […]
Absorbances were averaged across replicates, and corrected for background by subtracting the value for media-only wells. Each drug treatment was then evaluated as a percentage of untreated cells. […]
FOS analysis was carried out as described previously. […] Before purifying the FOS, each sample was analyzed for protein content using the modiﬁed Bradford assay. […]

Cc1c(C)c2c(c(C)c1OCCCCCN1CC(O)C(O)C(O)C1CO)CCC(C)(CCCC(C)CCCC(C)CCCC(C)C)O2 (centres unmarked) [Compound 4, 5′-tocopheroxypentyl-DNJ]
glucosylated free oligosaccharides (FOS) observed after treatment: nor Raji | glucosylated free oligosaccharides (FOS) observed after treatment (listed as ToP-DNJ 4): no glucosylated FOS were detected

From article PMC5824344 (ACS Chemical Biology, 2017)
